Results from patent US20110212899A1, “Corneal Neuritogenesis Promoter Containing Pacap and Its Derivative” (priority 2004, published 2011).
Where no end group is shown, it is not given here.

Test system: rabbit eye (tear secretion)
Assay: Promoting effect on tear secretion in a rabbit (Schirmer method, Test Example 6)
Assay type: in vivo
Settings: 0.1% eye drops, 50 μL; from 20 minutes to 120 minutes after administration
Description: Changes in the tear amount when PACAP27 and peptide 24 were administered to the eyes of a rabbit were examined. Japanese white rabbits with a body weight of 1.5 to 2.0 kg purchased from Kitayama Labes Co., Ltd were used. The animals were each put in separate cages placed in a room wherein a temperature of 23±3° C. and a humidity of 55±10% were kept and a light was on for 12 hours per day (lighting at 8:00 and lights-out at 20:00), and raised after arrival until the final day of the test. The animals were given 100 g of solid feed (Labo R Stock, Nosan Corporation) per day, and could freely have tap water. PACAP27 and peptide 24 were used as test substances. […] The amount of tear secreted was measured at 8.5 minutes before administration, and at 10 minutes, 20 minutes, 30 minutes, 60 minutes and 120 minutes after the administration by a Schirmer method. […] After the tear in the lower eyelid conjunctival sac was wiped with filter paper, the amount of tear secreted in 1 minute was measured using a Schirmer's test strip (Showa Yakuhin Kako Co.). The difference between the tear secretion amount at each time point after administration of the eye drops and the tear secretion amount before administration of the eye drops was calculated as a change in the tear amount caused by the test substance. […]

Substance: His-Ser-Asp-Ala-Ile-Phe-Thr-Asp-Ser-Tyr-Ser-Arg-Tyr-Arg-Arg-Gln-Leu-Ala-Val-Arg-Arg-Tyr-Leu-Ala-Ala-Val-Leu-Gly-Arg-Arg-NH2 (HSDAIFTDSYSRYRRQLAVRRYLAAVLGRR-NH2) [Peptide 24]
- tear secretion amount compared with vehicle solution-administration group: significant increase
